# PMC4728505 (Marine Drugs, 2015)
# *1 amine or outer side, *2 acyl side, *3 side chain or, on linkers, in order; H or OH if unused. Where a SMILES comes first, the peptide text is derived from it. Bridges are numbered along the chain shown (N, C = ends). [ ]: non-standard residue; d: D form. NMehTyr = CN[C@@H](CCc1ccc(O)cc1)C(=O)O; hTyr = N[C@@H](CCc1ccc(O)cc1)C(=O)O; NMeA = CN[C@@H](C)C(=O)O; CO = O=C([*:1])[*:2]
# Tests used:
# [1] = biological target: T1, protein phosphatase 1 (Oryctolagus cuniculus, UniProt P62139); test: biochemical; assay type: biochemical; details: for PP1 inhibition (in words): acquired standards
# T1 construct: purchased New England Biolabs
# T1 sequence (P62139 whole entry): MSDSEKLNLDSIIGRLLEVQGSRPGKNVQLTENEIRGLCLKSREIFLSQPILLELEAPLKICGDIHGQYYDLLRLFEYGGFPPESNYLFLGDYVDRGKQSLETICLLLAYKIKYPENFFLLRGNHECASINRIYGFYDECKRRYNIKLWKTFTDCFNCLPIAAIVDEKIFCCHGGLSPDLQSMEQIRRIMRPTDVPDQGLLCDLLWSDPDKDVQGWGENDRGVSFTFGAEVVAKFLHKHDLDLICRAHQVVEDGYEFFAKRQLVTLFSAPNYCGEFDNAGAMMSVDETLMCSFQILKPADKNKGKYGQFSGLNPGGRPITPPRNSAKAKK
# [2] = test system: PP1 (from rabbit skeletal muscle); details: cited from earlier work; for PP1 inhibition reported (in words): PP1 from rabbit skeletal muscle
# [3] = biological target: T2, carboxypeptidase A (Bos taurus, UniProt P00730); set-up: method as in PMID 11000037; details: read-out: CPA IC50 (converted); cited from earlier work
# T2 construct: purchased Sigma-Aldrich C9268
# T2 sequence (P00730 111-419): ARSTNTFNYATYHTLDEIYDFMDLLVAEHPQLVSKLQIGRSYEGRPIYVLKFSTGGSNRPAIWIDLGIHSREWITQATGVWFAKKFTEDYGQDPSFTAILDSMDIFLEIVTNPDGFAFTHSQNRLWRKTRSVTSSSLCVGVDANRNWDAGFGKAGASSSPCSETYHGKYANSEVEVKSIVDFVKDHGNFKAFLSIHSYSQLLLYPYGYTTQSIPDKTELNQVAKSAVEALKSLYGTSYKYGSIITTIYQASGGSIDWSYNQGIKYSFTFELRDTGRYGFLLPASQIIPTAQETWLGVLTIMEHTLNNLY
# [4] = biological target: T2, carboxypeptidase A; test: Carboxypeptidase A inhibition assay; assay type: biochemical; details: acquired standards
# Source text: The following reagents used for enzymatic assays were purchased from Sigma-Aldrich: trypsin (product number T0303), thrombin bovine plasma (T4648), elastase (E0258), carboxypeptidase A (C9268), aprotinine (A6103), N-p-tosyl-Gly-Pro-Lys-p-nitroanilide acetate salt (T6140), N-Succinyl-Gly-Gly-Phe-p-nitroanilide (S1899), 4-(2-Aminoethyl) benzenesulfonyl fluoride hydrochloride—AEBSF (A8456), elastatinal (E0881), N-Succinyl-Ala-Ala-Ala-p-nitroanilide (S4760), carboxypeptidase inhibitor—CPI (C0297), p-nitrophenyl phosphate disodium salt hexahydrate—p-NPP (71768), albumin bovine—BSA (A4503) and DL-dithiothreitol DTT (D0632).
# APs were assayed for bioactivity by protein phosphatase 1, carboxypeptidase A, trypsin, elastase and thrombin inhibition assays as described in Mazur-Marzec et al. 2015 [50].
SMILES,PP1 inhibition (in words) [1],PP1 inhibition reported (in words) [2],other results
"CC(C)C1NC(=O)C(NC(=O)NC(Cc2ccc(O)cc2)C(=O)O)CCCCNC(=O)C(Cc2ccccc2)NC(=O)C(C)N(C)C(=O)C(CCc2ccc(O)cc2)NC1=O (stereo not drawn) [Anabaenopeptin A, Tyr + CO[Lys + Val + Hty + MeAla + Phe]]",showed inhibition,inhibition,
CC[C@H](C)[C@@H]1NC(=O)[C@H](NC(=O)N[C@@H](CCCNC(=N)N)C(=O)O)CCCCNC(=O)[C@H]([C@@H](C)CC)NC(=O)[C@H](CCc2ccc(O)cc2)N(C)C(=O)[C@H](CCc2ccc(O)cc2)NC1=O [anabaenopeptin H] ({Arg-CO}-[dK]I[hTyr][NMehTyr]I; lactam 1-C),,,IC50 [3]: 3680 nM
CC[C@H](C)[C@H](NC(=O)N[C@@H]1CCCCNC(=O)[C@H](Cc2ccccc2)NC(=O)[C@H](C)N(C)C(=O)[C@H](CCc2ccc(O)cc2)NC(=O)[C@H](C(C)C)NC1=O)C(=O)O [Anabaenopeptin J] ({Ile-CO}-[dK]V[hTyr][NMeA]F; lactam 1-C),showed inhibition,,Activity against CPA (in words) [4]: active
CC[C@H](C)[C@@H]1NC(=O)[C@H](NC(=O)N[C@@H](CCCNC(=N)N)C(=O)O)CCCCNC(=O)[C@H](Cc2ccccc2)NC(=O)[C@H](CCc2ccc(O)cc2)N(C)C(=O)[C@H](CCc2ccc(O)cc2)NC1=O [Osc C] ({Arg-CO}-[dK]I[hTyr][NMehTyr]F; lactam 1-C),,inhibition,IC50 [2]: 900 nM
"CC[C@H](C)[C@@H]1NC(=O)[C@H](NC(=O)N[C@@H](Cc2ccc(O)cc2)C(=O)O)CCCCNC(=O)[C@H](Cc2ccccc2)NC(=O)[C@H](C)N(C)C(=O)[C@H](CCc2ccc(O)cc2)NC1=O [Oscillamide Y, Tyr + CO[Lys + Ile + Hty + MeAla + Phe]] ({Tyr-CO}-[dK]I[hTyr][NMeA]F; lactam 1-C)",showed inhibition,,IC50 [1]: 72.3 nM; Activity against CPA (in words) [4]: active; PP1 inhibition (in words) ([2]; at 100 μg/mL): no effect
CC(C)[C@@H]1NC(=O)[C@H](NC(=O)N[C@@H](CCCNC(=N)N)C(=O)O)CCCCNC(=O)[C@H](Cc2ccccc2)NC(=O)[C@H](C)N(C)C(=O)[C@H](CCc2ccc(O)cc2)NC1=O [Anabaenopeptin B] ({Arg-CO}-[dK]V[hTyr][NMeA]F; lactam 1-C),showed inhibition,inhibition,
CC[C@H](C)[C@@H]1NC(=O)[C@H](NC(=O)N[C@@H](CCCNC(=N)N)C(=O)O)CCCCNC(=O)[C@H](Cc2ccccc2)NC(=O)[C@H](C)N(C)C(=O)[C@H](CCc2ccc(O)cc2)NC1=O [anabaenopeptin F] ({Arg-CO}-[dK]I[hTyr][NMeA]F; lactam 1-C),,inhibition,
CSCC[C@@H]1NC(=O)[C@H](NC(=O)N[C@@H](CCCNC(=N)N)C(=O)O)CCCCNC(=O)[C@H](Cc2ccccc2)NC(=O)[C@H](C)N(C)C(=O)[C@H](CCc2ccc(O)cc2)NC1=O [oscillamide B] ({Arg-CO}-[dK]M[hTyr][NMeA]F; lactam 1-C),,inhibition,
